System: Caco-2 cells

permeability (Papp): ≤ 1 ×10⁻⁶ cm/s
Substance: Lucifer yellow [LY]
